Reference: DBAASP
Values after ≈ are worked out from the molar mass of the structure shown.

Key:
Experiment in all cases: ≥ marks a high value that may be exact or a test limit, other limits are often not marked, values filed in µg/mL are converted to µM
Bacillus subtilis 168 HT = test system: Bacillus subtilis 168 HT
Escherichia coli MG1655 = test system: Escherichia coli MG1655
[1] = test system: Bacillus anthracis Sterne 34F2
[2] = test system: Bacillus subtilis ATCC 9372
[3] = test system: Burkholderia thailandensis

MIC (Bacillus subtilis 168 HT)	MIC (Escherichia coli MG1655)	Compound	MIC [1]	MIC [2]	MIC [3]
≥ 101 µM	≥ 101 µM	CSCC[C@H](NC(=O)[C@H](CCCCN)NC(=O)[C@H](CCCCN)NC(=O)[C@H](CC(C)C)NC(=O)[C@H](CC(C)C)NC(=O)[C@H](CCCN=C(N)N)NC(=O)[C@H](CCCN=C(N)N)NC(=O)[C@H](CCCCN)NC(=O)[C@H](C)N)C(=O)N[C@@H](CCCCN)C(=O)O [AKRRLLKKMK]	–	–	–
≥ 71.5 µM	≥ 71.5 µM	CC(C)[C@H](NC(=O)[C@H](CCC(N)=O)NC(=O)[C@H](CS)NC(=O)[C@H](C)NC(=O)[C@H](CCCCN)NC(=O)[C@H](CCCN=C(N)N)NC(=O)[C@H](CC(N)=O)NC(=O)[C@H](CCCCN)NC(=O)[C@H](CCCCN)NC(=O)[C@H](Cc1c[nH]c2ccccc12)NC(=O)[C@@H](NC(=O)[C@H](CCCCN)NC(=O)CNC(=O)[C@@H](N)CC(N)=O)[C@@H](C)O)C(=O)N[C@@H](CCCCN)C(=O)O [NGKTWKKNRKACQVK]	–	–	–
–	–	CC[C@H](C)[C@H](NC(=O)CNC(=O)[C@@H](NC(=O)[C@H](CCCCN)NC(=O)[C@H](CCCCN)NC(=O)CNC(=O)[C@@H](NC(=O)[C@H](CCCCN)NC(=O)[C@H](Cc1c[nH]c2ccccc12)NC(=O)[C@H](CCCCN)NC(=O)[C@H](CCSC)NC(C)=O)[C@@H](C)CC)[C@@H](C)CC)C(=O)NCC(=O)N[C@@H](CCCCN)C(=O)N[C@@H](Cc1ccccc1)C(=O)N[C@@H](CC(C)C)C(=O)N[C@@H](Cc1cnc[nH]1)C(=O)N[C@@H](CO)C(=O)N[C@@H](C)C(=O)N[C@@H](CCCCN)C(=O)N[C@@H](CCCCN)C(=O)N[C@@H](Cc1ccccc1)C(=O)N[C@@H](CC(N)=O)C(N)=O [MKWKIGKKIGIGKFLHSAKKFN]	≥ 100 µM	≥ 100 µM	≥ 50 µM
8.6 µM (≈ 16 µg/mL)	17.2 µM (≈ 32.1 µg/mL)	CC(C)C[C@H](NC(=O)[C@H](Cc1ccccc1)NC(=O)[C@H](CS)NC(=O)[C@@H](NC(=O)[C@H](CC(C)C)NC(=O)[C@H](CCCN=C(N)N)NC(=O)[C@H](Cc1c[nH]c2ccccc12)NC(=O)[C@@H](N)CCCN=C(N)N)C(C)C)C(=O)N[C@@H](CS)C(=O)N[C@@H](CCCN=C(N)N)C(=O)N[C@@H](CCCN=C(N)N)C(=O)N[C@@H](CCCCN)C(=O)N[C@@H](CCCCN)C(=O)N[C@H](C(=O)O)C(C)C [RWRLVCFLCRRKKV]	–	–	–
